Values of other authors as cited in patent publication US4292313A, “LRF Antagonists” (The Salk Institute for Biological Studies, priority 1980, dated 1981).
[ ]: non-standard residue; d: D form. pGlu = O=C1CC[C@@H](C(=O)O)N1

System: pituitary gland
Details: versus 6-Gly des-His2 analog

[pGlu]WSY[dA]LRPG-NH2
Potency as inhibitor of release of gonadotropins relative to the same peptide with Gly in the 6-position: 3 times
